Experimental findings from patent USRE43390E1, “Pleuromutilin derivatives as antimicrobials” (GlaxoSmithKline LLC, priority 1997, dated 2012) are described below.

What all share (assay): antibacterial activity, MIC by standard broth dilution method in microtitre
Common to all, as to format: cell-based

In test [1] the test system is Morazella catarrhalis Ravasio. The following applies: M.c. = Morazella catarrhalis Ravasio. The procedure: (§1) The following Table illustrates the antibacterial activities of representative mutilin 14-esters. Activities are given as minimum inhibitory concentrations in micrograms per milliliter (10^−6 g/ml), and were determined using a standard broth dilution method in microtitre.

Test [2] deals with Staphylococcus aureus Oxford. The following applies: S.a. = Staphylococcus aureus Oxford. The method, then: as §1
Test [3] concerns Haemophilius influenzae Q1. The following applies: H.i. = Haemophilius influenzae Q1. The procedure: as §1
A further test deals with Escherichla coli DCU. The following applies: E.c. = Escherichla coli DCU. The method, then:
as §1

The subject of test [4] is Streptococcus pneumoniae 1629. The following applies: S.p. = Streptococcus pneumoniae 1629. The procedure: as §1

Regarding `C=C[C@]1(C)C[C@@H](OC(=O)CSC23CCN(CC2)CC3)[C@]2(C)[C@H](C)CC[C@]3(CCC(=O)[C@H]32)[C@@H](C)[C@@H]1O` [Example 1, Mutilin 14-(quinuclidin-4-yl-sulfanyl)-acetate], the minimum inhibitory concentrations entry in test [1] was “≦0.06 micrograms per milliliter”; in test [2], “≦0.06 micrograms per milliliter”; in test [3], 0.25 micrograms per milliliter; with Escherichla coli DCU, 16 micrograms per milliliter; in test [4], “≦0.06 micrograms per milliliter”.

Consider `C=C[C@]1(C)C[C@@H](OC(=O)CSC2CCN(C)CC2)[C@]2(C)[C@H](C)CC[C@]3(CCC(=O)[C@H]32)[C@@H](C)[C@@H]1O` [Example 15, Mutilin-14-(1-methylpiperid-4-ylsulfanyl)-acetate], for which the minimum inhibitory concentrations result in test [1] is listed as “≦0.06 micrograms per milliliter”; in test [2], “≦0.06 micrograms per milliliter”; in test [3], 0.5 micrograms per milliliter; with Escherichla coli DCU it was 64 micrograms per milliliter; in test [4], “≦0.06 micrograms per milliliter”.

As for `C=C[C@]1(C)C[C@@H](OC(=O)CSC2CC3CCC(C2)N3C)[C@]2(C)C(C)CC[C@]3(CCC(=O)[C@H]32)[C@@H](C)[C@@H]1O` (stereo partly drawn) [Example 50, Mutilin 14-(exo-8-methyl-8-azabicyclo[3.2.1]oct-3-ylsulfanyl)-acetate], the minimum inhibitory concentrations result in test [1] is given as “≦0.06 micrograms per milliliter”; in test [2] it was “≦0.06 micrograms per milliliter”; in test [3] it was 0.5 micrograms per milliliter; in the test with Escherichla coli DCU, 32 micrograms per milliliter; in test [4], “≦0.06 micrograms per milliliter”.

For the compound `C=C[C@]1(C)C[C@@H](OC(=O)CO)[C@]2(C)[C@H](C)CC[C@]3(CCC(=O)[C@H]32)[C@@H](C)[C@@H]1O` [Pleuomutilin, Pleuromutilin], the minimum inhibitory concentrations in test [1] was 0.5 micrograms per milliliter; in test [2] it was 2 micrograms per milliliter; in test [3], 2 micrograms per milliliter; in the test on Escherichla coli DCU, >64 micrograms per milliliter; in test [4], 8 micrograms per milliliter.

Consider `C=C[C@]1(C)C[C@@H](OC(=O)CSCCN(CC)CC)[C@]2(C)[C@H](C)CC[C@]3(CCC(=O)[C@H]32)[C@@H](C)[C@@H]1O` [Tiamulia, Tiamulin, reference compound], for which the minimum inhibitory concentrations in test [1] is listed as 0.125 micrograms per milliliter; in test [2], 0.25 micrograms per milliliter; in test [3], 2 micrograms per milliliter; with Escherichla coli DCU it was >64 micrograms per milliliter; in test [4] it was 0.25 micrograms per milliliter.
